In publication PMC7473772 (eLife, 2020):
Several values for one entry are separate records, joined by “and”; a condition that tells them apart may be missing. Equal entries are not always repeated. Where two headings read alike, the source gives them in different places.

Columns and labels:
[1] = system: tbaqp2/tbaqp3 null cells expressing TbAQP2 L118W; assay: microbe, parasite or virus in culture; assay type: cell-based, Trypanosoma brucei brucei
[2] = target: TbAQP2 L218W (Trypanosoma brucei brucei, UniProt Q6ZXT3, L218W); assay: [3H]-pentamidine transport; assay type: cell-based; details: AQP2 mutant L218W; n=4
[3] = target: TbAQP2^L264R (Trypanosoma brucei brucei, UniProt Q6ZXT3, L264R); assay: [3H]-pentamidine transport; assay type: cell-based; details: 30 nM [3H]-pentamidine
[4] = system: tbaqp1-2-3 null cells; assay: Drug sensitivity assay (resazurin), pentamidine and SHAM; assay type: cell-based, Trypanosoma brucei brucei; details: KO AQP1-3
[5] = system: tbaqp2/tbaqp3 null cells expressing TbAQP2^I110W; assay type: cell-based, Trypanosoma brucei brucei
[6] = system: TbAQP2WT; assay: cell-based; parameters: species or system Trypanosoma brucei brucei
[7] = target: TbAQP2WT (Trypanosoma brucei brucei, UniProt Q6ZXT3); assay: cell-based
[8] = target: T1, TbAQP2^I190T (Trypanosoma brucei brucei, UniProt Q6ZXT3, I190T); assay: cell-based
T1 sequence (Q6ZXT3 1-312 I190T): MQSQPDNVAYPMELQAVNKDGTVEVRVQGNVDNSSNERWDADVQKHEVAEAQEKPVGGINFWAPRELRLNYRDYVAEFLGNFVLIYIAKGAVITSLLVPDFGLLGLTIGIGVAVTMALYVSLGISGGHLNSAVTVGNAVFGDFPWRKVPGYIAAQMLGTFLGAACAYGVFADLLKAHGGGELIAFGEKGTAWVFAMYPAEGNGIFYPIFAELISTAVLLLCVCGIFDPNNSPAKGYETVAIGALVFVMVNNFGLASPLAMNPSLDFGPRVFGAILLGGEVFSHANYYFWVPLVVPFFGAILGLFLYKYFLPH

[9] = system: TbAQP2^I190T; assay: cell-based; parameters: species or system Trypanosoma brucei brucei; details: TbAQP2^I190T cells; read-out: Km of lower affinity segment (LAPT1)
[10] = target: T2, 3×HA tagged TbAQP2 (Trypanosoma brucei brucei, UniProt Q6ZXT3); assay type: cell-based
T2 construct: expressed in transfected cells; host or cells: T. brucei 2T1 bloodstream forms, tetracycline-induced

[11] = system: tbaqp2/tbaqp3 null cells; assay: [3H]-pentamidine transport; assay type: cell-based, Trypanosoma brucei brucei
[12] = system: CRK12 RNAi cells; assay: [3H]-pentamidine transport after CRK12 RNAi induction (endocytosis defect); assay type: cell-based, Trypanosoma brucei
[13] = target: TbAQP2/HAPT1 (Trypanosoma brucei brucei, UniProt Q6ZXT3); assay: cell-based; assay type: cell-based
[14] = target: TbAQP2 L84M (Trypanosoma brucei brucei, UniProt Q6ZXT3, L84M); assay: [3H]-pentamidine transport; assay type: cell-based; details: AQP2 mutant L84M; n=3
[15] = system: T. b. brucei 2T1; assay: Drug sensitivity assay (resazurin); assay type: cell-based; details: Trypanosoma brucei, 48 h drug + 24 h resazurin, read-out: EC50 control 2T1 AVG
Experimental: The tbaqp2/tbaqp3 null cells ([Baker et al., 2012]) and tbaqp1-2-3 null cells ([Jeacock et al., 2017]) (both obtained from David Horn, University of Dundee, UK) are derived from the 2T1 strain of T. b. brucei ([Alsford and Horn, 2008]). The CRK12 RNAi cell line^28 was obtained from Dr Tansy Hammarton (University of Glasgow, UK) and is also based on the 2T1 cell line; RNAi expression was induced with 1 µg/ml tetracycline in the medium. All experiments were performed with bloodstream form trypanosomes grown in vitro in HMI-11 medium as described ([Wallace et al., 2002]) at 37°C in a 5% CO2 atmosphere. Cultures were routinely maintained in 10 ml of this medium, being seeded at 5 × 10^4 cells/ml and passed to fresh medium at reaching approximately 3 × 10^6 cells/ml after 48 hr. For transport experiments 150 or 200 ml of culture was seeded at the same density in large flasks and incubated until the culture reached late-log phase.
Drug sensitivity assays for T. b. brucei bloodstream forms used the cell viability dye resazurin (Sigma) and were performed exactly as described ([Wallace et al., 2002]; [Bridges et al., 2007]) in 96-well plates with doubling dilutions of test compound, starting at 100 µM, over 2 rows of the plate (23 dilutions plus no-drug control). Incubation time with test compound was 48 hr (37°C/5% CO2), followed by an additional 24 hr in the presence of the dye.

[16] = system: tbaqp2/tbaqp3 null cells expressing TbAQP2WT; assay: microbe, parasite or virus in culture; assay type: cell-based, Trypanosoma brucei brucei
[17] = system: tbaqp1-2-3 null cells expressing TbAQP2WT; assay: Drug sensitivity assay (resazurin), pentamidine and SHAM; assay type: cell-based, Trypanosoma brucei brucei; details: Trypanosoma brucei, +AQP2 W.T in aqp1-3 triple KO; 3 repeats; read-out: Alamar blue EC50, MEAN
[18] = Trypanosoma brucei, read-out: Alamar blue EC50, MEAN
[19] = Trypanosoma brucei, read-out: Alamar blue EC50, single repeats
[20] = read-out: Alamar blue EC50, single repeats
[21] = Fig. 3A, exp AQP038-AQP041, AQP2 mutant I190T
[22] = AQP2/3-dKO, 30 nM [3H]-pentamidine, 1 mM adenosine
[23] = Fig. 3A, exp AQP016-AQP023, AQP2/3-dKO
[24] = Fig. 3A, exp AQP038-AQP041, AQP2/3-dKO
[25] = dKO control of the AQP3 mutant series, over 30 minutes

Sequence of TbAQP2/HAPT1 (Q6ZXT3 whole entry): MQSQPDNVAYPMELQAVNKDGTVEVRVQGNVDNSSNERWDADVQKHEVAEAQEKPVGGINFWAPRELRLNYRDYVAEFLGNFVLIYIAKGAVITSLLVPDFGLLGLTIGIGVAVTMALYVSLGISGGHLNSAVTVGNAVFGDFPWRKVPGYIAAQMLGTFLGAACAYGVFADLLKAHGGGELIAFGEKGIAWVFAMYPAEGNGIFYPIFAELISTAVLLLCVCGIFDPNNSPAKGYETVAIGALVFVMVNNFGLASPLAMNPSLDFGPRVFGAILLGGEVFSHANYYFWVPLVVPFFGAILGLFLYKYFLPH
Sequence of TbAQP2WT (Trypanosoma brucei brucei, UniProt Q6ZXT3) (Q6ZXT3 whole entry): as above
Sequence of TbAQP2^L264R (Q6ZXT3 whole entry L264R): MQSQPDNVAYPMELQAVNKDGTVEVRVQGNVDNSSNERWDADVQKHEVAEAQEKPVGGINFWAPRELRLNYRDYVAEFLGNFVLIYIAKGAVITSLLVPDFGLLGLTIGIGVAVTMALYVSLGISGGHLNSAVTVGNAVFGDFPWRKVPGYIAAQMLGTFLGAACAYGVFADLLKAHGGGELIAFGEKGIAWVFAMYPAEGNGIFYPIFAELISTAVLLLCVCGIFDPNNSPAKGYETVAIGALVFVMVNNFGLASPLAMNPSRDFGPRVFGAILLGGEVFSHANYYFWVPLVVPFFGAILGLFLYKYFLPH
T2 sequence (Q6ZXT3 whole entry): as the sequence (Q6ZXT3 whole entry) above
Sequence of TbAQP2 L218W (Q6ZXT3 whole entry L218W): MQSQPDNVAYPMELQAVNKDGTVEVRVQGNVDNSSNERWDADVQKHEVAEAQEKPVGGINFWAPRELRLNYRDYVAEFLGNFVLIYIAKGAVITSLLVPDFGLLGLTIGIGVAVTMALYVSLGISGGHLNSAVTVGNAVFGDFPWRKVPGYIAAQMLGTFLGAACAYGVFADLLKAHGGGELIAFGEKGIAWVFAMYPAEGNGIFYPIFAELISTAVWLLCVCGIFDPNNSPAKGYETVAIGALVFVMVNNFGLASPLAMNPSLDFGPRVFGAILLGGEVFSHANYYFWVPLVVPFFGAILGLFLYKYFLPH
Sequence of TbAQP2 L84M (Q6ZXT3 whole entry L84M): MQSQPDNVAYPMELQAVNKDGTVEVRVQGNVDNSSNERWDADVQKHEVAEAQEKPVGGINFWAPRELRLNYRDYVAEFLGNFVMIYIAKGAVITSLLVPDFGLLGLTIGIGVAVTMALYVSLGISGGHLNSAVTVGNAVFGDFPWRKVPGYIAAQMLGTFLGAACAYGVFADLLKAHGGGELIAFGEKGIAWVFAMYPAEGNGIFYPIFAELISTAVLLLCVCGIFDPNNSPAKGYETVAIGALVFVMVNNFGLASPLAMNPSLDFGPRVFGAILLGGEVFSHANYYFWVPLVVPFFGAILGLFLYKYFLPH

N=C(N)c1ccc(OCCCCCOc2ccc(C(=N)N)cc2)cc1 [Pentamidine]
EC50 [1, 18]: 46.3 nM | EC50 [1, 19]: 52.4 nM | EC50 ([1]; Trypanosoma brucei, read-out: EC50 AVG): 46.3 nM | EC50 [1, 20]: 40.8 nM and 45.7 nM | Pentamidine transport rate AVG [2]: 0.002093 pmol/10E7 cells/s | Pentamidine transport rate [3]: 0.00017 pmol/10E7 cells/s | EC50 [4, 20]: 75.4 nM and 63.9 nM | EC50 ([4]; Trypanosoma brucei, 3 repeats, read-out: Alamar blue EC50, MEAN): 69.3 nM | EC50 [4, 19]: 68.7 nM | EC50, percent of AQP2/3 null EC50 [5]: 122.13% | Km ([6]; TbAQP2-WT cells, read-out: Km of low affinity component (LAPT1)): 82.7 ± 17.5 µM | [3H]-pentamidine taken up by the low affinity component ([6]; highly similar for TbAQP2^I190T and TbAQP2WT cell lines): approximately 0.0005 pmol(10^7 cells)^−1 s^−1 | EC50 [7]: 41 ± 17 nM | Pentamidine transport rate AVG [7]: 0.02122 pmol/10E7 cells/s | Pentamidine transport rate as percent of +AQP2-WT, AVG [7]: 100.0% | Pentamidine transport rate as percent of +AQP2-WT, single experiments [7]: 100.0% | Pentamidine transport rate, AVG [7]: 0.02122 pmol/10E7 cells/s and 0.03781 pmol/10E7 cells/s | Pentamidine transport rate, percent of +AQP2-WT, AVG [7]: 100.00% of +AQP2-WT | Transport rate AVG [7]: 100 | activity at 0.03 µM ([7]; read-out: Pentamidine transport rate, percent of +AQP2-WT): 100% | IC50 [8]: 30.9 ± 12.2 nM | Pentamidine transport rate as percent of +AQP2-WT, AVG [8, 21]: 2.728% | Pentamidine transport rate, AVG [8, 21]: 0.0008657 pmol/10E7 cells/s | Pentamidine transport rate, single experiments [8, 21]: 0.0007167 pmol/10E7 cells/s and 0.001156 pmol/10E7 cells/s and 0.0009528 pmol/10E7 cells/s and 0.0006372 pmol/10E7 cells/s | Km [9]: 59.9 ± 9.1 µM | Effect on TbAQP2 turnover rate [10]: identical turnover rates | Pentamidine transport rate [11, 22]: 0.00022 pmol/10E7 cells/s and 0.000123 pmol/10E7 cells/s | Pentamidine transport rate, percent of +AQP2-WT [11, 22]: 0.383% and 1.05% | Pentamidine transport rate AVG ([11]; AQP2/3-dKO, n=16): 2.76E-04 pmol/10E7 cells/s | Pentamidine transport rate, percent of +AQP2-WT, AVG ([11]; AQP2/3-dKO, n=16): 1.08% of +AQP2-WT | Pentamidine transport rate, AVG ([11]; Fig. 3A, exp AQP001-AQP023, AQP2/3-dKO): 2.76E-04 pmol/10E7 cells/s | Pentamidine transport rate as percent of +AQP2-WT, AVG [11, 23]: 1.32% | Pentamidine transport rate as percent of +AQP2-WT, single experiments [11, 23]: 1.4% and 1.5% and 1.0% | Pentamidine transport rate as percent of +AQP2-WT, AVG [11, 24]: 0.383% | Pentamidine transport rate, AVG [11, 24]: 0.000123 pmol/10E7 cells/s | Pentamidine transport rate, single experiments [11, 24]: 0.0001045 pmol/10E7 cells/s and 0.0001529 pmol/10E7 cells/s and 0.0001563 pmol/10E7 cells/s and 8.02E-05 pmol/10E7 cells/s | Pentamidine transport rate [11, 25]: 1.22E-04 pmol/10E7 cells/s | Pentamidine transport rate, percent of TbAQP2WT control [11, 25]: 0.57% | Transport rate AVG ([11]; strain AQKO, unit not given, +AQP2-WT = 100): 1.05 | pentamidine uptake rate, CRK+tet, AVERAGE ([12]; CRK12 RNAi induced (+tet), 4 experiments): 0.00587 pmol/1E7 cells/s-1 | pentamidine uptake rate, CRK+tet ([12]; CRK12 RNAi induced (+tet), single experiments): 0.00804 pmol/1E7 cells/s-1 and 0.004193 pmol/1E7 cells/s-1 and 0.006636 pmol/1E7 cells/s-1 and 0.004619 pmol/1E7 cells/s-1 | pentamidine uptake rate, CRK-tet, AVERAGE ([12]; CRK12 RNAi not induced (-tet), 4 experiments): 0.00656 pmol/1E7 cells/s-1 | ΔG0 [13]: -10.2 kcal/mol | ΔG^0 (binding energy of substrate-transporter pair) [13]: -10.2 kcal/mol | δ(ΔG0) [13]: 0 kcal/mol | Ki ([13]; Ki): 36 ± 0.6 nM | Ki ([13]; Ki / affinity): 35 nM | Pentamidine transport rate AVG [14]: 0.003585 pmol/10E7 cells/s | EC50 [15]: 15 nM | EC50, percent of AQP2/3 null EC50 [16]: 0.08% and 0.0842% and 1.40% and 0.16% | EC50 [16, 18]: 0.84 nM | EC50 ([16]; read-out: Alamar blue EC50, MEAN): 1.61 nM | EC50 [16, 20]: 1.5 nM | EC50 [17]: 1.1 nM
